These results are taken from PubChem BioAssay (NCI).

Some test systems named below: 786-0 renal; A549 NSCLC; HS 578T breast; IGROV1 ovarian; OVCAR-5 ovarian; RXF 393 renal; SF-539 CNS; SK-MEL-2 melanoma; SK-MEL-5 melanoma; UACC-257 melanoma; DU-145 prostate; BT-549 breast.
Assay in all cases: DTP human tumour cell line panel, 48 h

Molecules are shown by their SMILES.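 Tested at 5 concentrations; 48 h exposure; 96-well plates; endpoints linearly interpolated, else capped at highest concentration. At the TGI there is no net growth.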

What is called TGI is the concentration giving total growth inhibition. The low end stands for greater sensitivity of the cells, the high end for lower sensitivity of the cells.

`CCCNC(=S)N/N=C/c1cccc(C)n1`: the TGI is greater than 100 µM in the assay with 786-0 renal; 73.5 µM in the assay on A549 NSCLC; greater than 100 µM with HS 578T breast; greater than 100 µM in the assay on IGROV1 ovarian; greater than 100 µM in the assay on OVCAR-5 ovarian; greater than 100 µM in the assay on RXF 393 renal. The TGI in the assay on SF-539 CNS is 62.9 µM; in the assay on SK-MEL-2 melanoma, 58.9 µM; in the assay with SK-MEL-5 melanoma, greater than 100 µM; in the assay with UACC-257 melanoma, greater than 100 µM.

In the case of `O=C1c2ccccc2CC12Cc1cc3c(cc1C2=O)CCC3` (centres undefined), the TGI with 786-0 renal, in the assay with A549 NSCLC, with DU-145 prostate, with HS 578T breast, in the assay with IGROV1 ovarian and in the assay with OVCAR-5 ovarian was greater than 100 µM in each case. For the same compound, the TGI in the assay on RXF 393 renal, in the assay on SF-539 CNS, with SK-MEL-2 melanoma, in the assay on SK-MEL-5 melanoma and in the assay on UACC-257 melanoma was greater than 100 µM each time.

With `COc1ccc(C2SCC(=O)N2c2ccc(-c3ccc(-n4c(-c5ccccc5)nc5ccccc5c4=O)cc3)cc2)cc1` (centres undefined), the TGI in the assay on 786-0 renal, in the assay with A549 NSCLC, in the assay with BT-549 breast, in the assay with DU-145 prostate, with HS 578T breast and in the assay with IGROV1 ovarian was greater than 100 µM throughout. Besides, the TGI in the assay on OVCAR-5 ovarian was 87.2 µM; in the assay with SF-539 CNS, greater than 100 µM; in the assay on SK-MEL-2 melanoma, 86.7 µM; in the assay on SK-MEL-5 melanoma, greater than 100 µM; in the assay with UACC-257 melanoma it was greater than 100 µM.

With `c1ccc(N=C2SC(=NNc3ccccc3)SC2=Nc2ccccc2)cc1`, the TGI in the assay with 786-0 renal, in the assay on A549 NSCLC, with DU-145 prostate, in the assay with HS 578T breast, with IGROV1 ovarian and in the assay on OVCAR-5 ovarian was greater than 100 µM each time. Also, the TGI in the assay with RXF 393 renal, in the assay with SF-539 CNS, with SK-MEL-2 melanoma, in the assay with SK-MEL-5 melanoma and with UACC-257 melanoma was greater than 100 µM in each case.

Regarding `O=C(/C=C/c1ccc(O)c(O)c1)OCCc1cccc2ccccc12`, the total growth inhibition concentration (TGI) with 786-0 renal stood at 12.7 µM; in the assay with A549 NSCLC it was 19.7 µM; with BT-549 breast, 21.2 µM; with DU-145 prostate, 18.6 µM; in the assay with IGROV1 ovarian it was 14.5 µM; with OVCAR-5 ovarian, 31.7 µM. Moreover, the TGI in the assay on RXF 393 renal came out at 25.1 µM; in the assay with SF-539 CNS, 18.2 µM; in the assay on SK-MEL-2 melanoma, 10.2 µM; with SK-MEL-5 melanoma, 5.31 µM; in the assay with UACC-257 melanoma, 28.2 µM.

On to `CCC1CC2CN3CCc4c([nH]c5c(-c6c(OC)ccc7c8c([nH]c67)[C@]6(C(=O)OC)CC7CC(CC)C6N(CC8)C7)c(O)ccc45)[C@](C(=O)OC)(C2)C13` (some centres undefined), for which the TGI with 786-0 renal is 28 µM; with A549 NSCLC, 36.9 µM; in the assay with BT-549 breast, 33.7 µM; in the assay with DU-145 prostate it was 28.4 µM; with IGROV1 ovarian, 31.3 µM; in the assay with OVCAR-5 ovarian, 33.2 µM. For the same compound, the TGI in the assay with RXF 393 renal was found to be 26.8 µM; in the assay with SF-539 CNS, 39.7 µM; in the assay on SK-MEL-2 melanoma it was 47.2 µM; in the assay with SK-MEL-5 melanoma it was 27.4 µM; in the assay with UACC-257 melanoma it was 47.2 µM.

For the compound `NNC(=O)CNC(=O)CSc1nnc(COc2ccc(Cl)cc2)n1-c1ccccc1`, the TGI in the assay with 786-0 renal, in the assay on A549 NSCLC, in the assay with DU-145 prostate, with IGROV1 ovarian, with OVCAR-5 ovarian and in the assay on RXF 393 renal was greater than 100 µM each time. Also, the TGI in the assay on SF-539 CNS, in the assay on SK-MEL-2 melanoma and in the assay with UACC-257 melanoma was greater than 100 µM each time.

Regarding `Cc1nc2c(o1)C(=O)c1ccccc1/C2=N/c1ccccn1`, the TGI in the assay with 786-0 renal was 58.7 µM; with A549 NSCLC it was greater than 100 µM; in the assay on BT-549 breast, 32.2 µM; in the assay with HS 578T breast, 41.1 µM; in the assay with IGROV1 ovarian it was 51.4 µM; in the assay with OVCAR-5 ovarian it was 32.4 µM. The TGI in the assay with RXF 393 renal was greater than 100 µM; in the assay with SF-539 CNS it was 33.2 µM; in the assay with SK-MEL-2 melanoma, 43.6 µM; with SK-MEL-5 melanoma it was 30.4 µM; in the assay on UACC-257 melanoma, 26.9 µM.

Take `CC(=O)[O-].CC(=O)[O-].O=C(N/N=C/c1cc(Cl)cc(Cl)c1[OH2+])c1ccncc1.[Co+2]`: the TGI in the assay with 786-0 renal, in the assay on A549 NSCLC, in the assay with IGROV1 ovarian, in the assay with OVCAR-5 ovarian, in the assay with RXF 393 renal and in the assay on SF-539 CNS was greater than 100 µM in each case. Further, the TGI in the assay with SK-MEL-5 melanoma and in the assay on UACC-257 melanoma was greater than 100 µM each time.

For the compound `COc1ccc(/C=C2\CSC/C(=C\c3ccc(OC)c(OC)c3OC)C2=O)c(OC)c1OC`, the TGI in the assay on 786-0 renal is 48.1 µM; in the assay on A549 NSCLC, greater than 100 µM; with BT-549 breast it was greater than 100 µM; with DU-145 prostate, greater than 100 µM; with IGROV1 ovarian it was greater than 100 µM; in the assay with OVCAR-5 ovarian, greater than 100 µM. Besides, the TGI with RXF 393 renal is 53.7 µM; in the assay on SF-539 CNS it was 88.6 µM; in the assay on SK-MEL-2 melanoma, greater than 100 µM; in the assay on SK-MEL-5 melanoma, 88.6 µM; in the assay on UACC-257 melanoma, greater than 100 µM.

Turning to `Cc1cc2[nH]c3c(C#N)c(-c4ccccc4)c(N=Nc4cccc(C(F)(F)F)c4)c(=O)n3c2cc1C`, the TGI with 786-0 renal, with A549 NSCLC, in the assay on BT-549 breast, in the assay on IGROV1 ovarian, in the assay on OVCAR-5 ovarian and in the assay with RXF 393 renal was greater than 100 µM throughout. In addition, the TGI with SF-539 CNS is greater than 100 µM; in the assay with SK-MEL-2 melanoma it was greater than 100 µM; in the assay on SK-MEL-5 melanoma, 51.8 µM; in the assay on UACC-257 melanoma, greater than 100 µM.

For the compound `O=C1c2ccccc2-c2nc(-c3cccnc3)cc3c2c1nc1ccccc13`, the TGI in the assay with 786-0 renal, with A549 NSCLC, with BT-549 breast, with DU-145 prostate, in the assay on HS 578T breast and in the assay with IGROV1 ovarian was greater than 100 µM in each case. The TGI with OVCAR-5 ovarian, in the assay on SF-539 CNS, with SK-MEL-2 melanoma and with UACC-257 melanoma was greater than 100 µM throughout.
